# Experimental data as given in patent US20250161419A1, “SERPIN PEPTIDES AND METHODS OF USING THE SAME” (SERPIN PHARMA, LLC, priority 2022, published 2025).
# Key:
# TSLP [1] = test: MC903 AD model, TSLP in ears and serum by ELISA; assay type: in vivo, mouse; conditions: topical, vs MC903 treated mice
# Description: (§1) Mice were treated with SP16 in 70% EtOH (MC903+SP16) or drug vehicle (MC903). Normal control (NC) mice were treated with EtOH only. Ears were measured for PAR2 protein expression through western blot analysis (quantitative analysis after normalization to beta-actin shown) (n=3-5). TSLP was measured in both the ears and serum by ELISA (N=3-5). Scratching was assessed over a 3 minute period after a 5-minute acclimatization period and the number of scratches are shown (n=3). IL-4 was measured in ear lysate via ELISA (N=3-5).
# GAP-43 mRNA = test: RT-qPCR of GAP-43 mRNA in primary cultured adult DRG neurons; assay type: cell-based, rat; conditions: 240 nM, 24 h, vs vehicle
# CCL24 = test: OVA-challenge allergic inflammation model, CCL24 in BALF by ELISA; assay type: in vivo, mouse; conditions: OVA-challenge in sensitized mice, treated during challenge phase, vs vehicle
# Description: Mice were subjected to the OVA-challenge allergic inflammation model and treated with vehicle or SP16 during the challenge phase. The bronchoalveolar lavage fluid (BALF) was analyzed for cytokines via ELISA.
# The ova-induced model of allergic inflammation is a widely used model of eosinophilic driven allergic diseases.
# TSLP [2] = test: Poly I:C-induced TSLP production by SPINK7 knockout EPC2 cells (ELISA); assay type: cell-based, human; conditions: Poly I:C 5 μg/ml, 8 hours
# Description: FIG. 12A: Poly I:C-induced TSLP production by SPINK7 knockout EPC2 cells (Human esophageal epithelial cells). SPINK7 KO cells and control cells were plated in high calcium and high density, for 48 hours before being treated with SP16 or 7G and Poly I:C (5 μg/ml, or untreated) for 8 hours. TSLP production in the supernatant was measured by ELISA. FIG. 12B: primary esophageal epithelial cells (EPC2) were treated with SP16 and then stimulated with IL-13, a TH2 response mediated cytokine, to induce CCL26.
# SP16 reduces several key cytokines involved in allergic responses. Upon knockout of SPINK7, esophageal epithelial cells release exacerbated levels of TSLP. TSLP is a key mediator of immune cell responses upon activation to an insult such as allergens.
# PAR2 = test: MC903 AD model, PAR2 protein expression in ears by western blot; assay type: in vivo, mouse; conditions: topical, vs MC903
# Description: as §1
# NFκB = NFκB reporter assay stimulated with LPS (THP1-XBlue-MD2-GD14 reporter cells, SEAP read-out); assay type: cell-based; conditions: peptide 50 μg/ml before LPS 5 ng/ml, overnight
# Description: The reporter cells (THP1-XBlue-MD2-GD14 cells) were treated with each peptide (50 μg/ml) before being insulted with LIPS (5 ng/ml) and incubated overnight. The NFκB inducible Secreted Embryonic Alkaline Phosphatase (SEAP) was measured in the supernatant and read for absorbance.
# IL-4 = test: MC903 AD model, IL-4 in ear lysate by ELISA; assay type: in vivo, mouse; conditions: topical, vs MC903
# Description: as §1
# TLR4 = test: Immunoblot of injured sciatic nerve two days after PNL, TLR4; assay type: in vivo, mouse; conditions: 2 μg/g s.c.
# Description: Neuropathic pain model: Mice (n=30) were randomly assigned to two different groups: SP163M (2 μg/g; s.c. 100 μl) and vehicle (H20 s.c. 100 μl). Mice were treated 1 h prior to partial nerve ligation (PNL) and then daily at least 1 h prior to behavior testing for 2 weeks. PNL studies were performed as previously disclosed^59 and adapted for mice.^57 Male mice were anesthetized with 3% isoflurane (Vetone, USA) in 1.5 L/min oxygen (Praxair, USA) and maintained with 2.5% isoflurane. An incision was made along the long axis of the femur. […] Filaments were presented in a consecutive fashion either ascending or descending using the up-down method as previously disclosed^60 and modified for mice.^57,61 The filament that caused paw withdrawal 50% of the time (the 50% PWT) was determined. […]
# Immunoblots of sciatic nerve: Sciatic nerves were harvested 2 days after PNL to identify early molecular and cellular changes. […] Nerves were lysed in RIPA buffer and equal amounts of protein (20 μg) from nerves lysates, as determined by BCA Protein Assay (Bio-Rad, Hercules, CA, USA), were subjected to 10% SDS-PAGE and electro-transferred to nitrocellulose membranes. […] Primary antibodies were detected with HRP-conjugated species-specific secondary antibodies (Cell Signaling Technology, Danvers, MA, USA; cat #7076S or 4S; 1:5000). […]
sequence,measurement,setting,value
VKFNKPFVFLMIEQNTK (SP16 peptide core sequence including the LRP1 binding site; listed as Homo sapiens),local (ear) TSLP,TSLP [1],significant reduction in systemic (serum) and local (ear) TSLP
same,systemic (serum) TSLP,TSLP [1],significant reduction in systemic (serum) and local (ear) TSLP
same,GAP-43 mRNA,GAP-43 mRNA,increased GAP-43 mRNA compared to vehicle-treated neurons
same,CCL24 in BALF,CCL24,significantly reduces CCL24
same,Poly I:C mediated TSLP release,TSLP [2],effective in significantly reducing Poly 1:C mediated TSLP and CCL26 release
same,PAR2 protein expression in ears,PAR2,PAR2 and TSLP inhibition
same,NFκB activity (NFκB inducible SEAP in supernatant),NFκB,capable of reducing NFκB activity
same,IL-4 release in the skin tissue (ear lysate),IL-4,significantly reduced
same,TLR4 expression in injured sciatic nerve (immunoblots),TLR4,robustly down regulated TLR4 expression
